Like-named read-outs stand apart in the source and are kept apart here.
How the values were obtained:
[1] = target: T1, Peroxisome proliferator-activated receptor γ (Homo sapiens, UniProt P37231); assay: cell-based; settings: for EC10, linear / logEC10 / EC10, linear transformed: PPARγ bioassay, dosing range all; for EC10, linear: linear model; for logEC10: log-logistic model; for EC10, PPARγ (M): 10% of maximum effect of rosiglitazone; for SR-ScorePPARγ: SR-Score, sigma k=1, x=5; for Specificity ratio (SRbaseline) SRPPARγ: against baseline cytotoxicity; for Specificity ratio (SRcytotoxicity) SRPPARγ: against experimental cytotoxicity; for EC10, PPARγ: effect; for log(1/EC10) PPARγ: input of the ToxPi score, values up to 1.00; for Emax: read-out: Emax%PPARγ
T1 sequence (P37231 238-505 limits assumed): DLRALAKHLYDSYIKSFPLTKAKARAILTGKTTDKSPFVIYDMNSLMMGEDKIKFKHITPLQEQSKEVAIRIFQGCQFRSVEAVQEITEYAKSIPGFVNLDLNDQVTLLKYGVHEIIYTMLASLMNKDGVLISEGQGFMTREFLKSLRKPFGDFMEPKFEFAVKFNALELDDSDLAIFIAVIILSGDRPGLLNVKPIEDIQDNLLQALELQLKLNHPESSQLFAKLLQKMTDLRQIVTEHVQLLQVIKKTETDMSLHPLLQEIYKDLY
Description: (§1) All bioassay media components and the ERα-UAS-bla GripTite and PPARγ-UAS-bla cells were obtained from Thermo Fisher Scientific (Waltham, MA, USA). AREc32 reporter gene cells based on MCF7 were provided by C. Roland Wolf (Cancer Research UK); AhR CALUX cells (H4L7.5c2 derived from H4IIe) were provided by Michael Denison (UC Davis, USA); and SH-SY5Y cells were purchased from Sigma-Aldrich.
(§2) Cell culture conditions and bioassay protocols including response detection are provided in Text S2.1–2.4 and Table S3. − Cell viability was determined from cell confluency using an IncuCyte S3 Live-Cell Analysis System (Sartorius AG, Essen, Germany) before and after exposure, except for SH-SY5Y cells (live–dead staining with Nuclear Green LcS1 and propidium iodide, Abcam, UK). For metabolic activation experiments, cell viability was assessed using the ToxBLAzer DualScreen Kit (Thermo Fisher Scientific) to capture the remaining toxicity in ERα-UAS-bla GripTite after treatment with the aCYP catalyst (details in Text S2.4).
For ARE, the concentration that triggered an induction ratio of 1.5 (ECIR1.5) was used as the benchmark value, as detailed in Text S2.5. IC10 values also served as a threshold for data analysis in all assays; only concentrations below IC10 were considered when deriving EC10 or ECIR1.5.
The maximum efficacy (Emax%) refers to the maximum of the log–logistic concentration–response curve attained by test chemicals compared to the reference chemical’s maximum and was obtained for both ERα and PPARγ. […]
(§3) S2: Cell culture and bioassays
(§4) S2.1: Cell Culturing Conditions
All suppliers and sources are given in detail in SI-Excel S3. The bioassay media for the different assays were prepared as follows: Assay medium for ER alpha-UAS-bla GripTite (ERα) and […]
2% charcoal-stripped FBS, and 100 U/mL penicillin-streptomycin. […]
S2.2: Cell Seeding and Incubation. For all bioassays, cell suspensions in the respective assay medium were dispensed into each well of 384-well plates using a MultiFlo Dispenser (Biotek, (now Agilent), Winooski, VT, U.S.). After seeding, the plates were incubated at 37° C and 5% CO₂ for […]. The final cell densities and plate types were as follows: Black poly-D-lysine […]
6500 cells/well, ERα: 5000 cells/well. White 384-well plates with a clear bottom (Product No. […]
S2.3: Chemical Dosing and Assay Analysis Procedures.

[2] = test system: Antioxidant response element; assay: MitoOxTox: oxidative stress response in AREc32; settings: for EC10, linear: linear model fit
Description: as §1, §2
(§5) For ARE, the concentration that triggered an induction ratio of 1.5 (ECIR1.5) was used as the benchmark value, as detailed in Text S2.5. IC10 values also served as a threshold for data analysis in all assays; only concentrations below IC10 were considered when deriving EC10 or ECIR1.5. […]
as §3, §4
(§6) All suppliers and sources are given in detail in SI-Excel S3. The bioassay media for the different assays were prepared as follows: Assay medium for ER alpha-UAS-bla GripTite (ERα) and PPAR gamma-UAS-bla 293H (PPARγ) was prepared with 98% Opti-MEM, supplemented with 2% charcoal-stripped FBS, and 100 U/mL penicillin-streptomycin. MitoOxTox and AhR assay medium was comprised of 90% DMEM with GlutaMAX, supplemented with 10% FBS, and 100 U/mL penicillin-streptomycin. Neurotoxicity assay medium consisted of the neurobasal […]
(§7) (1 picture or pasted object on this page, not shown here) […]
(§8) medium, supplemented with 2% B-27 Supplement and 2 mM GlutaMAX Supplement. SH - SY5Y cells were differentiated with 10 µM all-trans retinoic acid prior to the assay.
(§9) S2.2: Cell Seeding and Incubation. For all bioassays, cell suspensions in the respective assay medium were dispensed into each well of 384-well plates using a MultiFlo Dispenser (Biotek, (now Agilent), Winooski, VT, U.S.). After seeding, the plates were incubated at 37° C and 5% CO₂ for […]. The final cell densities and plate types were as follows: Black poly-D-lysine coated 384-well plates (Product No. 354663, Corning Inc., NYC, U.S.) were used for PPARγ:
(§10) 6500 cells/well, ERα: 5000 cells/well. White 384-well plates with a clear bottom (Product No.
(§11) 781098, Greiner, Kremsmünster, Austria) were utilized for the MitoOxTox assay: 2650

SH-SY5Y cells = assay: cells; settings: for EC10: Homo sapiens, SH-SY5Y; for EC10, linear: linear model; for Specificity ratio (SRbaseline) SRNOI: against baseline cytotoxicity; for Relative effect potency REPNOI: relative to BPA;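 as to Relative effect potency REPNOI: EC10 of BPA divided by EC10 of the test compound so values above 1 mean more potent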;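 as to Specificity ratio (SRbaseline) SRNOI: ratio of predicted baseline cytotoxicity IC10 to the neurite outgrowth inhibition EC10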
Description: as §1, §2, §5, §3, §4, §6, §7, §8, §9, §10, §11

[3] = Acidity constant (pKa) measurement, Sirius T3 UV-metric, and speciation at pH 7.4; settings: for Double negative form (pH = 7.40) / Negative form (pH = 7.40) / Neutral form (pH = 7.40) / αneutral % (fraction of neutral species): from experimental pKa; for αneutral % (fraction of neutral species): pH 7.4; for pKa: pKa (Acid)
Protocol: Physicochemical properties provide input parameters for the baseline toxicity model. Acidity constants (pK a) and octanol–water partition constants of the neutral species (K ow) were measured with a Sirius T instrument from Pion Inc. (Sussex, UK) (Text S1.2 and Table S1). A detailed description of the pK a and K ow measurements can be found in literature. , […]
S1.2: pKa and log Kow measurements […]
titrator (Pion Inc., Sussex, U.K.). A detailed description of the experimental procedure is available in the literature.1 In brief, each sample was prepared by mixing 5 µL of a 10 mM dimethyl sulfoxide (DMSO) stock solution with 25 µL of a phosphate buffer solution (14.4 mM […]
A reference vial containing 5 µL of DMSO
(Roth, A994-100 ML) and 25 µL of phosphate buffer was analyzed alongside each sample.
The pKa values were determined using the automated UV-metric pKa protocol within the Sirius T3 Control software (version 2.0.0.0.). Each sample was subjected to three consecutive […]
from 2 to 12 by stepwise addition of 0.5 M HCl or 0.5 M potassium hydroxide while recording […]
UV absorbance. […]
To ensure reproducibility, measurements were conducted on at least two

[4] = Bioassay ARE, dosing range all, log-logistic model fit
[5] = read-out: EC10, linear transformed
[6] = NOI bioassay, dosing range all, log-logistic model
[7] = second pKa column, experimental, this study
[8] = phosphate buffer with […] KCl, Sirius T3 titrator, experimental, this study

Row | Compound | EC10, linear [1] | logEC10 [1] | EC10, linear ([2]; Bioassay ARE, dosing range all) | logEC10 [2, 4] | EC10 (SH-SY5Y cells; read-out: EC10, linear) [M] | EC10 (SH-SY5Y cells; [5]) [M] | EC10 (SH-SY5Y cells; read-out: logEC10) [M] | EC10, PPARγ (M) [1] | EC10, linear transformed [1] | SR-ScorePPARγ [1] | EC10, PPARγ [1] [µM] | log(1/EC10) PPARγ [1] | Emax [1] [%] | logEC10 (SH-SY5Y cells; [6]) | Double negative form (pH = 7.40) [3] [%] | Negative form (pH = 7.40) [3] [%] | Neutral form (pH = 7.40) [3] [%] | αneutral % (fraction of neutral species) [3] [%] | EC10 (SH-SY5Y cells; read-out: EC10, NOI) [M] | EC10 (SH-SY5Y cells; read-out: EC10, NOI (M)) [M] | other results
1 | CC1(C)[C@H](O)C(C)(C)[C@H]1O [Trans TMCD] | no effect | no effect | no effect | no effect | 0.00531 | 0.00415 | 0.00417 |  |  |  |  |  |  |  |  |  |  |  |  |  | 
2 | CC(C)(c1ccc(O)c(-c2ccccc2)c1)c1ccc(O)c(-c2ccccc2)c1 [BPPH, 2,2-Bis(2-hydroxy-5-biphenylyl)propane] | 9.24E-07 | -6.26 | no effect | no effect | 9.84e-06 | 2.12e-05 |  | 5.55 × 10^–7 M | 5.55E-07 | 1.00 | 0.555 | 0.88 | 12 | no effect | 0.000533 | 0.825 | 99 | 99 |  |  | Specificity ratio (SRbaseline) SRPPARγ [1]: 1.90; Specificity ratio (SRcytotoxicity) SRPPARγ [1]: 12.47; pKa [3, 7]: 10.6; pKa ([3]; experimental, this study): 9.48
3 | O=S(=O)(c1ccc(O)cc1)c1ccccc1O [2,4-BPS, 2,4'-Dihydroxydiphenyl sulfone] | no effect | no effect | no effect | no effect |  | 0.000871 |  |  |  |  |  |  |  | no effect | 5 | 52 | 43 | 43 |  |  | EC10 ([2]; Arec32, read-out: EC10, linear transformed): 88700 µM; EC10, linear (SH-SY5Y cells; NOI bioassay, dosing range all): no effect; pKa (Acid) [3]: 8.43; pKa [3]: 7.31
4 | Cc1cc(Cc2cc(C)c(O)c(C)c2)cc(C)c1O [TMBPF, Bis(3,5-dimethyl-4-hydroxyphenyl)methane] | 5.55E-07 | -6.48 | no effect | no effect | 5.06e-06 | 5.49e-06 | 4.27e-06 | 3.29 × 10^–7 M | 3.29E-07 | 0.98 | 0.329 | 0.92 | 18 |  |  |  |  |  | 4.28e-06 | 4.28e-06 | Specificity ratio (SRbaseline) SRPPARγ [1]: 13.64; Specificity ratio (SRcytotoxicity) SRPPARγ [1]: 8.97; Specificity ratio (SRbaseline) SRNOI (SH-SY5Y cells): 2.18; Specificity ratio (SRcytotoxicity) SRNOI (SH-SY5Y cells; against experimental cytotoxicity): 2.97; Relative effect potency REPNOI (SH-SY5Y cells): 11.87
5 | CC1(C)[C@H](O)C(C)(C)[C@H]1O [t-TMCD, trans-2,2,4,4-Tetramethyl-1,3-cyclobutanediol] |  |  |  |  |  |  |  |  |  |  |  |  |  |  |  | 1e-6 | 100 | 100 | 0.00415 | 0.00415 | Specificity ratio (SRbaseline) SRNOI (SH-SY5Y cells): 0.24; Relative effect potency REPNOI (SH-SY5Y cells): 0.0122; pKa [3, 8]: 15.4
6 | Oc1ccc(C2(c3ccc(O)cc3)CCCCC2)cc1 [BPZ, 1,1'-Bis(4-hydroxyphenyl)cyclohexane] |  |  |  |  | 3.52e-05 | 4.31e-05 | 3.02e-05 |  |  |  |  |  |  |  | 0.00202 | 1.11 | 99 | 99 | 3.05e-05 | 3.05e-05 | pKa [3, 7]: 10.1; pKa ([3]; experimental, this study): 9.35
7 | CC(C)CC(C)(c1ccc(O)cc1)c1ccc(O)cc1 [BP-MIBK, 4,4'-(1,3-Dimethylbutylidene)diphenol] | no effect | no effect | no effect | no effect |  | 5.05e-05 |  |  |  |  |  |  |  | no effect |  |  |  |  |  |  | EC10, linear (SH-SY5Y cells; NOI bioassay, dosing range all): no effect
8 | CC(C)(c1cc(Br)c(O)c(Br)c1)c1cc(Br)c(O)c(Br)c1 [TBBPA, 3,3',5,5'-Tetrabromobisphenol A] |  |  | no effect |  |  |  |  |  |  |  |  |  |  |  | 56 | 39 | 4.58 | 5 |  |  | logEC10 [2]: no effect; logEC10 (SH-SY5Y cells): no effect; EC10, linear (SH-SY5Y cells; NOI bioassay, dosing range all): no effect; pKa ([3]; phosphate buffer with […] KCl, Sirius T3 titrator, second pKa column, experimental, this study): 7.24; pKa [3, 8]: 6.47
9 | C=CCOc1ccc(S(=O)(=O)c2ccc(O)cc2)cc1 [BPS-MAE, 4-[[4-(Allyloxy)phenyl]sulfonyl]phenol] | 6.41E-07 | -6.25 | no effect | no effect | 6.61e-05 | 2.55e-05 | 2.51e-05 | 5.57 × 10^–7 M | 5.57E-07 | 1.00 | 0.557 | 0.88 | 22 |  |  |  |  |  | 2.52e-05 | 2.52e-05 | 

— publication PMC12392461, “Beyond Estrogenicity: A Comparative Assessment of Bisphenol A and Its Alternatives in In Vitro Assays Questions Safety of Replacements” (Environmental Science & Technology, 2025)
